Measurements from publication PMC8587849, “Antimicrobial and Anticancer Application of Silver(I) Dipeptide Complexes” (Molecules, 2021).
“And” between values parts separate entries of the source, which are not always exact repeats. Identical values can stand only once. Like-named read-outs stand apart in the source and are kept apart here.

Key:
MCF-7 [1] = tested on: MCF-7; parameters: method as in PMID 33461021; conditions: cited from earlier work
MCF-7 cells = conditions: cited from earlier work
MDA-MB-231 [2] = tested on: MDA-MB-231; parameters: method as in PMID 33461021; conditions: cited from earlier work
A.flavus = assay: Antifungal activity (filamentous fungi); assay type: cell-based; conditions: read-out: IC50 and MIC100 (class symbol)
Description: (§4) Cultures of bacteria (in Mueller-Hinton broth, MHB) and yeasts (in Sabouraud’s growth medium, SB) were incubated under shaking (250 rpm) at 37 °C. The growth of bacteria and yeasts was evaluated by measuring the absorbance of the growing cultures (A550) until the cultures reached the stationary growth phase. […] During culturing, the diameters of growing fungal colonies were measured at regular intervals [71, 72]. […] The final concentration of DMSO never exceeded 1.0 vol. % in the control or treated samples. […] The IC50 and MIC90 with respect to MIC80 values were evaluated from toxicity curves.

[3] = tested on: Staphylococcus aureus CCM 3953; assay: Antibacterial activity, macrodilution method; assay type: cell-based; conditions: S. aureus
Description: (§5) Cultures of bacteria (in Mueller-Hinton broth, MHB) and yeasts (in Sabouraud’s growth medium, SB) were incubated under shaking (250 rpm) at 37 °C. The growth of bacteria and yeasts was evaluated by measuring the absorbance of the growing cultures (A550) until the cultures reached the stationary growth phase. […] The final concentration of DMSO never exceeded 1.0 vol. % in the control or treated samples. […] The IC50 and MIC90 with respect to MIC80 values were evaluated from toxicity curves.

Candida albicans SC 5314 = assay: Antifungal activity (yeast), macrodilution method; assay type: cell-based; conditions: C. albicans
Description: as §4

[4] = tested on: Escherichia coli (E. coli) CCM 3988; assay: Antibacterial activity, macrodilution method; assay type: cell-based
Description: as §5

[5] = tested on: Alternaria alternata CCM F-128; assay: Antifungal activity (filamentous fungi), macrodilution on solidified PDA; assay type: cell-based; conditions: A. alternata; for IC50: read-out: IC50; for MIC100: suffix s = fungistatic
Description: as §4

HCT116 cells = assay: Cell cycle analysis by flow cytometry; assay type: cell-based, human; conditions: treated with IC50
Description: (§1) Prior to each analysis, cells were washed in PBS, followed by resuspending in staining solution (0.5 mg/mL ribonuclease A, 0.2% final concentration Triton X-100, propidium iodide 0.025 mg/mL in 500 µL PBS) (all Sigma Aldrich), and incubated for 30 min at room temperature in the dark. For analysis of stained cells, a BD FACSCalibur flow cytometer (BD Bio-sciences) was used. A minimum of 1 × 10^4 events were analysed per analysis.

Jurkat cells = assay: Cell cycle analysis by flow cytometry; assay type: cell-based, human; conditions: treated with IC50
Description: as §1

MDA-MB-231 cells = assay: Cell cycle analysis by flow cytometry; assay type: cell-based, human; conditions: treated with IC50
Description: as §1

BLM cells = assay: Cell cycle analysis by flow cytometry; assay type: cell-based, human; conditions: treated with IC50
Description: as §1

[6] = tested on: Candida parapsilosis ATCC 22019; assay: Antifungal activity (yeast), macrodilution method; assay type: cell-based; conditions: C. parapsilosis
Description: as §5

CT DNA = assay: UV-Vis absorption titration with CT DNA; assay type: binding, calf; conditions: 0.01 M Tris-HCl pH 7.4; complex 7.85 × 10^−5 M
Description: UV–vis spectra were measured in 0.01 M Tris-HCl buffer (pH 7.4) using a Varian Cary 100 Bio spectrophotometer in the range of 230–320 nm and recorded at room temperature (24 °C) using a quartz cuvette of 1 cm path length. The concentration of investigated Ag(I) complexes was 7.85 × 10^−5 M. During the titration, an aliquot of buffered CT DNA solution was added to each cuvette (sample and reference) to eliminate the absorbance of DNA itself. The DNA concentration per nucleotide was determined by absorption spectroscopy using the molar absorption coefficient (6600 M^−1cm^−1) at 260 nm.

[7] = tested on: Staphylococcus epidermidis CCM 7221; assay: Antibacterial activity, macrodilution method; assay type: cell-based; conditions: S.epidermidis
Description: as §5

[8] = tested on: Rhizopus oryzae CCM F-8284; assay: Antifungal activity (filamentous fungi), macrodilution on solidified PDA; assay type: cell-based; conditions: for IC50: read-out: IC50; for MIC100: suffix s = fungistatic
Description: as §4

BJ-5ta = assay: MTS assay on fibroblasts; assay type: cell-based; conditions: BJ-5ta human skin fibroblasts, 72 h
Description: (§2) After 72 h of incubation, 10 µL of MTS was added to each well. […] IC50 values were calculated from MTS analyses.

S. aureus biofilm = assay: Influence on S. aureus biofilm formation, crystal violet staining; assay type: cell-based; conditions: for A570 (biofilm, crystal violet): control A570 = 0.47; for I: biofilm intensity: control strong
Description: The biofilm was qualified by the crystal violet staining method. Briefly, overnight cultures of bacteria S.aureus (in MHB) and yeasts C.parapsislosis (in SB) were prepared. The fresh prepared growth media MHB and SB were inoculated with the overnight culture for a final concentration of 5 × 10^6 cells mL^−1. The microbial biofilm was formed in 96-well microplates for adherent cells. […] Prepared cultures were incubated for 2 h at 37 °C. […] The treatment with DMSO (solvent) alone served as a control. The inoculated microplates were incubated at 37 °C for the next 46 h. […] Microplates with mature biofilm were decanted and washed using 200 μL of saline solution. The plate was left for 15 min to dry completely at laboratory temperature. Then, 110 μL of 0.4% crystal violet dye was added to each well, and the plate was incubated for 15 min at laboratory temperature. After the decantation, the plate was washed 3 times with 200 μL of saline solution. Then, 200 μL of 96% ethanol was added. The microplate was left to incubate for 15 min at laboratory temperature. After the transfer of the well content to a clean microplate, the absorbance (570 nm) of released crystal violet (proportionate to biofilm cell density) was measured,, and the values were evaluated as weak biofilm formation A570 <0.1; 0.199>, medium biofilm formation A570 <0.2; 0.3>, strong biofilm formation A570 <0.301; 0.999>, or very strong biofilm formation A570 ≥ 1.00.

HeLa = assay: MTS antiproliferative assay; assay type: cell-based, human; conditions: 72 h
Description: as §2

MCF-7 [9] = assay: MTS antiproliferative assay; assay type: cell-based, human; conditions: 72 h
Description: as §2

[10] = tested on: Microsporum gypseum CCM F-8342; assay: Antifungal activity (filamentous fungi), macrodilution on solidified PDA; assay type: cell-based; conditions: M.gypseum
Description: as §4

CT DNA–HO system = assay: Fluorescence competitive binding with Hoechst 33258; parameters: species or system calf; conditions: displacement of Hoechst 33258 from CT DNA; 462 nm; 10 mM Tris-HCl pH 7.4
Description: The fluorescence competitive binding studies of silver(I) complexes with Hoechst 33 258 (HO) were performed on a Varian Cary Eclipse spectrophotometer. The emission spectra of DNA–HO were measured in the range of 400–550 nm using an excitation wavelength of 343 nm with a slit width of 5 nm for the excitation and 5 nm for the emission beam. […] Ksv quenching constant was determined according to the classical Stern-Volmer Equation (1) in [63, 75]:F0/F = 1 + KSV [Q](1) where F0 and F are the fluorescence intensities in the absence and the presence of the quencher at 462 nm, KSV is the Stern-Volmer quenching constant and [Q] is the concentration of the quencher.

[11] = tested on: methicillin-resistant Staphylococcus aureus L12; assay: Antibacterial activity, macrodilution method; assay type: cell-based; conditions: S. aureus L12 (MRSA)
Description: as §5

HCT116 = assay: MTS antiproliferative assay; assay type: cell-based, human; conditions: 72 h
Description: (§3) Cells were maintained in standard conditions with an atmosphere containing 5% CO2 at 37 °C.
as §2

MDA-MB-231 [12] = assay: MTS antiproliferative assay; assay type: cell-based, human; conditions: 72 h
Description: as §3, §2

Jurkat = assay: MTS antiproliferative assay; assay type: cell-based, human; conditions: 72 h
Description: as §3, §2

BLM = assay: MTS antiproliferative assay; assay type: cell-based, human; conditions: for IC50: BLM, MTS, 72 h
Description: as §3, §2

S. thypimurium TA98 = assay: Ames test, plate incorporation method; assay type: cell-based, Salmonella Typhimurium; conditions: positive control, 100µg
Description: (§6) Salmonella Typhimurium TA 98 and TA 100 were obtained from the Czech Collection of Microorganisms. As a positive mutagen, 3-(5-nitro-2-furyl) acrylic acid (NFAA) was used.

S. thypimurium TA100 = assay: Ames test, plate incorporation method; assay type: cell-based, Salmonella Typhimurium; conditions: positive control, 100µg
Description: as §6

## [Ag3(Gly)2NO3]n
MCF-7 [1]
  IC50: 2.6 ± 0.1 µM
MCF-7 cells; MFC-7 cancer cells, Control 9.8%, ref Banti et al.
  cells in sub-G0 population: 42.7%
MCF-7 cells
  cells in S phase: 24.1%
MDA-MB-231 [2]
  IC50: 2.7 ± 0.2 µM

## [Ag2(GlyAla)(NO3)2]n [AgGlyAla]
A.flavus
  IC50: > 100 µM
[3]
  IC50: 7 µM
  MIC90: 11 µM
Candida albicans SC 5314
  IC50: 50 µM
  MIC80: 87 µM
[4]
  IC50: 6 µM
  MIC90: 9 µM
[5]
  IC50: 42 µM
  MIC100: > 100 µM
HCT116 cells; 48 h
  cells in G2/M: 14.0 ± 0.4%
  cells in S: 7.0 ± 0.3%
HCT116 cells; 72 h
  cells in G2/M: 7.6 ± 1.7%
  cells in S: 8.1 ± 1.2%
Jurkat cells; 48 h
  cells in G2/M: 17.9 ± 1.8%
  cells in S: 12.6 ± 0.5%
Jurkat cells; 72 h
  cells in G2/M: 10.3 ± 3.1%
  cells in S: 12.1 ± 1.8%
MDA-MB-231 cells; 24 h
  cells in G2/M: 22.8 ± 2.5% and 22.8%
  cells in S: 11.2 ± 2.0%
MDA-MB-231 cells; 48 h
  cells in G2/M: 19.4 ± 0.1%
  cells in S: 11.1 ± 0.7%
BLM cells; 48 h
  cells in G2/M: 28.9 ± 2.7%
  cells in S: 19.5 ± 0.1%
BLM cells; 72 h
  cells in G2/M: 27.3 ± 1.3%
  cells in S: 18.8 ± 0.4%
[6]
  IC50: 30 µM
  MIC80: 60 µM
CT DNA
  Hypochromism: 40.7%
  Δλmax (red shift on addition of CT DNA): 9 nm
[7]
  IC50: 8 µM
  MIC90: 10 µM
[8]
  IC50: 30 µM
  MIC100: 50 µM
BJ-5ta
  IC50: 40.2 µM
S. aureus biofilm; complex concentration 5 µM
  A570 (biofilm, crystal violet): 0.51
  I: biofilm intensity: strong (strong biofilm formation A570 <0.301; 0.999>)
S. aureus biofilm; complex concentration 10 µM
  A570 (biofilm, crystal violet): 0.41
  I: biofilm intensity: strong (strong biofilm formation A570 <0.301; 0.999>)
S. aureus biofilm; complex concentration 25 µM
  A570 (biofilm, crystal violet): 0.25
S. aureus biofilm; complex concentration 50 µM
  A570 (biofilm, crystal violet): 0.23
S. aureus biofilm; complex concentration 100 µM
  A570 (biofilm, crystal violet): 0.25
  I: biofilm intensity: medium (medium biofilm formation A570 <0.2; 0.3>)
HeLa
  IC50: 33.2 µM
MCF-7 [9]
  IC50: 7.5 µM
[10]; read-out: IC50
  IC50: 75 µM
[10]; suffix s = fungistatic
  MIC100: 100 µM
CT DNA–HO system
  KSV (Stern-Volmer quenching constant): 7.97 ± 0.03 × 10^4 M^−1
[11]
  IC50: 9 µM
  MIC90: 20 µM
HCT116
  IC50: 28 µM
MDA-MB-231 [12]
  IC50: 7.4 µM
Jurkat
  IC50: 9.7 µM
BLM
  IC50: 10.9 µM
BLM; ratio of IC50 values BJ-5ta/BLM
  Selectivity index (SI): 3.7

## O=C(O)C=Cc1ccc([N+](=O)[O-])o1 [NFAA, 3-(5-nitro-2-furyl) acrylic acid]
S. thypimurium TA98
  Revertants CFU No. ± SD: 28 ± 2 CFU
S. thypimurium TA100
  Revertants CFU No. ± SD: 1352± 124 CFU

## [Ag2(HGlyAsp)(NO3)]n [AgGlyAsp]
A.flavus
  IC50: > 100 µM
[3]
  IC50: 51 µM
  MIC90: 96 µM
Candida albicans SC 5314
  IC50: 73 µM
  MIC80: 100 µM
[4]
  IC50: 17 µM
  MIC90: 23 µM
[5]
  IC50: 35 µM
  MIC100: > 100 µM
HCT116 cells; 24 h
  cells in G2/M: 16.8 ± 2.4%
  cells in S: 16.3 ± 2.3%
HCT116 cells; 48 h
  cells in G2/M: 11.7 ± 3.4%
  cells in S: 10.3 ± 1.3%
Jurkat cells; 24 h
  cells in G2/M: 15.5 ± 2.7%
  cells in S: 14.0 ± 0.6%
Jurkat cells; 48 h
  cells in G2/M: 6.3 ± 0.3%
  cells in S: 12.4 ± 1.1%
MDA-MB-231 cells; 24 h
  cells in G2/M: 30.6%
MDA-MB-231 cells; 48 h
  cells in G2/M: 25.8 ± 0.5%
  cells in S: 10.6 ± 1.9%
MDA-MB-231 cells; 72 h
  cells in G2/M: 9.6 ± 1.2%
  cells in S: 7.1 ± 2.4%
BLM cells; 24 h
  cells in G2/M: 14.8 ± 0.2%
  cells in S: 13.8 ± 3.0%
  cells in Sub-G0: 51.7%
BLM cells; 48 h
  cells in G2/M: 10.9 ± 2.8%
  cells in S: 10.8 ± 2.5%
  cells in Sub-G0: 56.1%
BLM cells; 72 h
  cells in Sub-G0: 59.3%
[6]
  IC50: 50 µM
  MIC80: 100 µM
CT DNA
  Hypochromism: 30% and 30.8%
  Δλmax (red shift on addition of CT DNA): 13 nm
[7]
  IC50: 25 µM
  MIC90: 50 µM
[8]
  IC50: 73 µM
  MIC100: 100 µM
BJ-5ta
  IC50: 57.6 µM
S. aureus biofilm; complex concentration 5 µM
  A570 (biofilm, crystal violet): 0.36
  I: biofilm intensity: strong (strong biofilm formation A570 <0.301; 0.999>)
S. aureus biofilm; complex concentration 10 µM
  A570 (biofilm, crystal violet): 0.35
  I: biofilm intensity: strong (strong biofilm formation A570 <0.301; 0.999>)
S. aureus biofilm; complex concentration 50 µM
  A570 (biofilm, crystal violet): 0.24
S. aureus biofilm; complex concentration 100 µM
  A570 (biofilm, crystal violet): 0.25
  I: biofilm intensity: medium (medium biofilm formation A570 <0.2; 0.3>)
HeLa
  IC50: 33.3 µM
MCF-7 [9]
  IC50: 33.8 µM
[10]; read-out: IC50 and MIC100 (class symbol)
  IC50: > 100 µM
CT DNA–HO system
  KSV (Stern-Volmer quenching constant): 8.33 ± 0.07 × 10^4 M^−1
[11]
  IC50: 31 µM
  MIC90: 49 µM
HCT116
  IC50: 35.5 µM
MDA-MB-231 [12]
  IC50: 33.6 µM
Jurkat
  IC50: 36.8 µM
BLM
  IC50: 35.6 µM
